Measurements as given in patent publication US8445409B2, “Use of 5-benzyloxymethyl-1,2-isoxazoline derivatives as a herbicide” (Moghu Research Center Ltd., priority 2007, dated 2013).
“Also recorded” adds a separate entry of the source.

Columns and labels:
Soybean = assay: Upland pot test, pre-/post-emergence spray, visual rating; format: in vivo, soybean (GLYMX); conditions: for Visual measurement: Crops, Soybean: 2 weeks after spray, 0-10 scale (10=completely killed)
Source text: (§1) To a rectangular plastic pot having a surface area of 300 cm^2, mixed soils including blend bed soil (Boonong, Horticultural Bed Soil No. 3) and sandy loam soil were filled (mixing ratio, 1:1). Seeds of the eight different types of weeds including gramineous weed such as barnyardgrass, large crabgrass, green foxtail, fall panicum, and broadleaf weed such as common cocklebur, velvetleaf, Indian joint-vetch, and morningglory were sown. To the other pot containing the same soil mixture, seeds of the five different types of crops including corn, soybean, cotton, wheat and rice were sown. Pots were kept in a greenhouse of which temperature was maintained at 25˜30° C. (day) or 15˜25° C. (night), and regularly watered.
(§2) After fourteen days and when the crops and the weeds reached their three-leaf stage, the other set of a crop pot and a weed pot were prepared by the same method as described above. Then, “test substance” was sprayed thereto. In this case, spray treatment to the plants after they have grown for two weeks corresponded to post-emergence treatment while spray treatment to the seeds right after the sowing corresponded to pre-emergence treatment. Spray was carried out by using a track sprayer (R&D Sprayer, USA) equipped with a Teejet 8002 nozzle (Spraying Systems Co., USA). Spray volume was adjusted to 300 L/ha. The spray solution was prepared by dissolving the “test substance” in acetone and adding the same volume of 0.2% (v/v) Tween 20 aqueous solution. Dosage of the test substance was 500, 250, 125, 62.5 or 31.3 g/ha. Two weeks after the spray of the test substance, efficacy and phytotoxic effect to the crops and the weeds were visually measured based on a 0 to 10 scale (0: no efficacy, 10: completely killed).

Large crabgrass = assay: Herbicidal activity at different growth stages, fresh weight suppression; format: in vivo; conditions: for Suppression ratio relative to the biomass of the untreated group: Large crabgrass 1 leaf / Suppression ratio relative to the biomass of the untreated group: Large crabgrass 2 leaf / Suppression ratio relative to the biomass of the untreated group: Large crabgrass 3 leaf / Suppression ratio relative to the biomass of the untreated group: Large crabgrass 4 leaf / Suppression ratio relative to the biomass of the untreated group: Large crabgrass PRE: fresh weight two weeks after treatment
Protocol: To a cup pot having a surface area of 100 cm^2 wherein mixed soils including blend bed soil (Boonong, Horticultural Bed Soil No. 3) and sandy loam soil were filled (mixing ratio, 1:1), seeds of large crabgrass and annual bluegrass were sown consecutively at an one week interval. The pots were moistened by sub-irrigation, and kept in a greenhouse maintained at 25˜30° C. (day) or 15˜25° C. (night). The said weeds were grown to various growth stages from pre-emergence to the four-leaf stage. Then, they were applied with the test substance of the present invention at dosage of 2, 1, 0.5, or 0.25 kg/ha. As a reference herbicide, Dithiopyr (32% EC, manufactured by Dongbu Hannong Chemical Company), was applied at 0.96, 0.48, or 0.24 kg/ha. Spray volume was adjusted to 2,000 L/ha. The method to spray of the test substance and prepare spray solutions were the same as described above. The reference herbicide was used after it was diluted with 0.2% (v/v) Tween 20 aqueous solution. The test was conducted in a randomized block design with three replicates. Two weeks after the treatment, plant parts remained above the pot soil surface were cut and the fresh weight was weighed. Results are given by a suppression ratio relative to the biomass that was obtained from the untreated group (see, Table 3).

[1] = tested on: gramineous weeds such as barnyardgrass, green foxtail, large crabgrass and fall panicum; assay: Upland pot test, gramineous weeds as a group; format: in vivo
Source text: as §1, §2

Goosegrass = assay: Selective control of grassy weeds in turf (Example 3-1), visual rating; format: in vivo; conditions: four weeks after spray, 0-100 scale (100=completely killed); for Herbicidal activity, visual: Weeds GSG (POST): 3 leaf stage
Source text: (§3) Commercially available sod mats of zoysiagrass and bentgrass, Kentucky bluegrass, and perennial ryegrass were purchased. After cutting each turf sod mat in a size of 10 cm×20 cm, it was transplanted to a rectangular plastic pot having a surface area of 300 cm^2 wherein mixed soils including blend of a bed soil (Boonong, Horticultural Nursery Soil No. 3) and sandy loam soil were filled (mixing ratio, 1:1). After transplanting, the grass was mowed (0.5˜1.0 cm in height) once a week, and kept for one month in a greenhouse maintained at 25˜30° C. (day) or 15˜25° C. (night). Then three strips of 1 cm width were removed by excision with a scissor. The open space was filled with a new soil, and seeds of large crabgrass, annual bluegrass, or goosegrass were sown. The pots were kept in a greenhouse. When the said weeds were grown up to the 3 leaf stage, another set was prepared in the same method. The first set represented post-emergence (POST) and the second set represented pre-emergence (PRE) stages of the weeds (large crabgrass, annual bluegrass, goosegrass). Then the test compound was applied at 0.25, 0.5. 1.0, 2.0, and 4.0 kg/ha. Spray was made by a track sprayer equipped with a Teejet 8002 nozzle. Spray volume was adjusted to 2,000 L/ha. The spray solution was prepared by dissolving the “test substance” in acetone and adding the same volume of 0.2% (v/v) Tween 20 aqueous solution. Four weeks after the spray of the test substance, phytotoxicity to the turfgrass and herbicidal activity to the said weeds were visually evaluated based on 0 to 100 scale (0: no phytotoxic effect, 100: completely killed). The test was conducted in a completely randomized design with 3 replicates.

Perennial ryegrass = assay: as above; format: in vivo; conditions: four weeks after spray, 0-100 scale (100=completely killed)
Source text: as §3

In the case of `Cc1ccsc1C1=NOC(C)(COCc2c(F)cccc2F)C1` (stereo not drawn) [test substance, 5-(2,6-difluorobenzyl)oxymethyl-5-methyl-3-(4-methylthiophen-5-yl)-1,2-isoxazoline], the “Visual measurement: Crops, Soybean” value (Soybean; post-emergence foliar spray at three leaf stage, 31.2 g/ha) is reported as 0, the “Visual measurement: Crops, Soybean” value (Soybean; post-emergence foliar spray at three leaf stage, 62.5 g/ha) is reported as 0 and the “Visual measurement: Crops, Soybean” value (Soybean; post-emergence foliar spray at three leaf stage, 125 g/ha) is reported as 0. For the same compound, the “Visual measurement: Crops, Soybean” value (Soybean; post-emergence foliar spray at three leaf stage, 250 g/ha) was 2, the “Visual measurement: Crops, Soybean” value (Soybean; post-emergence foliar spray at three leaf stage, 500 g/ha) was 6 and the “Safety to soybean (in words)” value (Soybean; post-emergence treatment) was “not safe”. For the same compound, the “Visual measurement: Crops, Soybean” value (Soybean; pre-emergence soil treatment, 31.2 g/ha) was 0, the “Visual measurement: Crops, Soybean” value (Soybean; pre-emergence soil treatment, 62.5 g/ha) was 0 and the “Visual measurement: Crops, Soybean” value (Soybean; pre-emergence soil treatment, 125 g/ha) was 0. For the same compound, the “Visual measurement: Crops, Soybean” value (Soybean; pre-emergence soil treatment, 250 g/ha) was 0, the “Visual measurement: Crops, Soybean” value (Soybean; pre-emergence soil treatment, 500 g/ha) was 0 and the “Suppression ratio relative to the biomass of the untreated group: Large crabgrass 1 leaf” value (Large crabgrass; 1 kg/ha) was 100%. The “Suppression ratio relative to the biomass of the untreated group: Large crabgrass 2 leaf” value (Large crabgrass; 1 kg/ha) was 98%, the “Suppression ratio relative to the biomass of the untreated group: Large crabgrass 3 leaf” value (Large crabgrass; 1 kg/ha) was 94% and the “Suppression ratio relative to the biomass of the untreated group: Large crabgrass 4 leaf” value (Large crabgrass; 1 kg/ha) was 70%. The “Suppression ratio relative to the biomass of the untreated group: Large crabgrass PRE” value (Large crabgrass; 1 kg/ha) was 100%, the “Suppression ratio relative to the biomass of the untreated group: Large crabgrass 1 leaf” value (Large crabgrass; 2 kg/ha) was 100% and the “Suppression ratio relative to the biomass of the untreated group: Large crabgrass 2 leaf” value (Large crabgrass; 2 kg/ha) was 98%. The “Suppression ratio relative to the biomass of the untreated group: Large crabgrass 3 leaf” value (Large crabgrass; 2 kg/ha) was 97%, the “Suppression ratio relative to the biomass of the untreated group: Large crabgrass 4 leaf” value (Large crabgrass; 2 kg/ha) was 76% and the “Suppression ratio relative to the biomass of the untreated group: Large crabgrass PRE” value (Large crabgrass; 2 kg/ha) was 100%. The “Suppression of large crabgrass” value (Large crabgrass; 3-leaf stage, 1 kg/ha or more) was no less than 90%, the “Suppression ratio relative to the biomass of the untreated group: Large crabgrass 2 leaf” value (Large crabgrass; .12 kg/ha) was 45% and the “Suppression ratio relative to the biomass of the untreated group: Large crabgrass 4 leaf” value (Large crabgrass; .12 kg/ha) was 16%. The “Suppression ratio relative to the biomass of the untreated group: Large crabgrass 1 leaf” value (Large crabgrass; .25 kg/ha) was 100%, the “Suppression ratio relative to the biomass of the untreated group: Large crabgrass 2 leaf” value (Large crabgrass; .25 kg/ha) was 81% and the “Suppression ratio relative to the biomass of the untreated group: Large crabgrass 3 leaf” value (Large crabgrass; .25 kg/ha) was 72%. For the same compound, the “Suppression ratio relative to the biomass of the untreated group: Large crabgrass 4 leaf” value (Large crabgrass; .25 kg/ha) was 33%, the “Suppression ratio relative to the biomass of the untreated group: Large crabgrass PRE” value (Large crabgrass; .25 kg/ha) was 100% and the “Suppression ratio relative to the biomass of the untreated group: Large crabgrass 1 leaf” value (Large crabgrass; .5 kg/ha) was 100%. The “Suppression ratio relative to the biomass of the untreated group: Large crabgrass 2 leaf” value (Large crabgrass; .5 kg/ha) was 93%, the “Suppression ratio relative to the biomass of the untreated group: Large crabgrass 3 leaf” value (Large crabgrass; .5 kg/ha) was 86% and the “Suppression ratio relative to the biomass of the untreated group: Large crabgrass 4 leaf” value (Large crabgrass; .5 kg/ha) was 65%. The “Suppression ratio relative to the biomass of the untreated group: Large crabgrass PRE” value (Large crabgrass; .5 kg/ha) was 100%, the “Suppression of large crabgrass” value (Large crabgrass; PRE to 2-leaf stage, 0.5 kg/ha or above) was no less than 90% and the “Control of large crabgrass (in words)” value (Large crabgrass; over four-leaf stage) was “suppressed but were not completely controlled”. The “Control of gramineous weeds (in words)” value ([1]; post-emergence treatment at three-leaf stage, FIG. 2) was “well controlled”, the “Control of gramineous weeds (in words)” value ([1]; post-emergence treatment, 500 g/ha) was “most of the gramineous weeds were controlled” and the “Control of gramineous weeds (in words)” value ([1]; pre-emergence treatment, 125 g/ha or more, FIG. 1) was “remarkable effect of controlling all of the gramineous weeds; also recorded: effectively controlled”. For the same compound, the “Herbicidal activity, visual: Weeds GSG (POST)” value (“Herbicidal activity … (POST)” below) (Goosegrass; 0.25 kg/ha) was 85, the “Herbicidal activity, visual: Weeds GSG (PRE)” value (from here on “Herbicidal activity … (PRE)”) (Goosegrass; 0.25 kg/ha) was 100 and the “Herbicidal activity … (POST)” value (Goosegrass; 0.5 kg/ha) was 95. For the same compound, the “Herbicidal activity … (PRE)” value (Goosegrass; 0.5 kg/ha) was 100, the “Herbicidal activity … (POST)” value (Goosegrass; 1 kg/ha) was 100 and the “Herbicidal activity … (PRE)” value (Goosegrass; 1 kg/ha) was 100. The “Herbicidal activity … (POST)” value (Goosegrass; 2 kg/ha) was 100, the “Herbicidal activity … (PRE)” value (Goosegrass; 2 kg/ha) was 100 and the “Herbicidal activity … (POST)” value (Goosegrass; 4 kg/ha) was 100. The “Herbicidal activity … (PRE)” value (Goosegrass; 4 kg/ha) was 100, the “Phytotoxicity, visual: Turfgrass PRG” value (Perennial ryegrass; 0.25 kg/ha) was 0 and the “Phytotoxicity, visual: Turfgrass PRG” value (Perennial ryegrass; 0.5 kg/ha) was 0. For the same compound, the “Phytotoxicity, visual: Turfgrass PRG” value (Perennial ryegrass; 1 kg/ha) was 0, the “Phytotoxicity, visual: Turfgrass PRG” value (Perennial ryegrass; 2 kg/ha) was 0 and the “Phytotoxicity, visual: Turfgrass PRG” value (Perennial ryegrass; 4 kg/ha) was 0.
